In patent US6525001B1, “Substituted pyrimidine and pyridine herbicides” (Mid-American Commercialization Corporation, priority 1997, dated 2003):

Assays:
Type in all cases: in vivo
[1] = tested on: bedstraw (Galium aparine); assay: Test B pre-/postemergence; set-up: key: 0 is no effect; 10 is complete control
Procedure, shortened: (§1)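 Compounds in a surfactant-containing, non-phytotoxic solvent blend are applied to freshly planted seed (preemergence) and, concurrently, to seedlings of 2 to 18 cm at 1–4 leaves (postemergence). Plants stay in the greenhouse twelve to sixteen days and are then scored visually from 0 (no effect) to 10 (complete control).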

corn (Zea mays) = assay: Test B pre-/postemergence; set-up: key: 0 is no effect; 10 is complete control
Procedure, shortened: as §1

[2] = tested on: crabgrass (Digitaria sanguinalis); assay: Test B pre-/postemergence; set-up: key: 0 is no effect; 10 is complete control
Procedure, shortened: as §1

[3] = tested on: giant foxtail (Setaria faberii); assay: Test B pre-/postemergence; set-up: key: 0 is no effect; 10 is complete control
Procedure, shortened: as §1

[4] = tested on: purple nutsedge (Cyperus rotundus); assay: Test B pre-/postemergence; set-up: key: 0 is no effect; 10 is complete control
Procedure, shortened: as §1

rape (Brassica napus) = assay: Test B pre-/postemergence; set-up: key: 0 is no effect; 10 is complete control
Procedure, shortened: as §1

soybean (Glycine max) = assay: Test B pre-/postemergence; set-up: key: 0 is no effect; 10 is complete control
Procedure, shortened: as §1

[5] = tested on: sugar beet (Beta vulgaris); assay: Test B pre-/postemergence; set-up: key: 0 is no effect; 10 is complete control
Procedure, shortened: as §1

[6] = tested on: velvetleaf (Abutilon theophrasti); assay: Test B pre-/postemergence; set-up: key: 0 is no effect; 10 is complete control
Procedure, shortened: as §1

[7] = tested on: wheat (Triticum aestivum); assay: Test B pre-/postemergence; set-up: key: 0 is no effect; 10 is complete control
Procedure, shortened: as §1

wild oat (Avena fatua) = assay: Test B pre-/postemergence; set-up: key: 0 is no effect; 10 is complete control
Procedure, shortened: as §1

[8] = tested on: bamyardgrass (Echinochloa crus-galli); assay: Test B flood test
Procedure, shortened: (§2)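 Read-out is a visual response score from 0 (no effect) to 10 (complete control), assigned by comparison with untreated controls. Treatment was applied at the 2-leaf stage, and plants stayed in the greenhouse for twelve to sixteen days before scoring.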

[9] = tested on: duck salad (Heteranthera limosa); assay: Test B flood test
Procedure, shortened: as §2

rice (Oryza sativa) = assay: Test B flood test
Procedure, shortened: as §2

[10] = tested on: smallflower flatsedge (Cyperus difformis); assay: Test B flood test
Procedure, shortened: as §2

[11] = Rate 62 g/ha, Postemergence (flood test)
[12] = Rate 125 g/ha, Postemergence, flood test
[13] = Rate 250 g/ha, Postemergence (flood test species)

## Cc1cnc(-c2ccc(C(F)(F)F)cc2)nc1Cc1cccc(OC(F)(F)F)c1 [Compound 15]
[1]; Rate 62 g/ha, Postemergence
  Plant response rating, Bedstraw: 9
[1]; Rate 62 g/ha, Preemergence
  Bedstraw plant response rating: 6
[1]; Rate 125 g/ha, Postemergence
  Plant response rating, Bedstraw: 9
[1]; Rate 125 g/ha, Preemergence
  Bedstraw plant response rating: 8
[1]; Rate 250 g/ha, Postemergence
  Plant response rating, Bedstraw: 9
[1]; Rate 250 g/ha, Preemergence
  Plant response rating, Bedstraw: 8
Corn (Zea mays); Rate 62 g/ha, Postemergence
  Plant response rating, Corn: 3
Corn (Zea mays); Rate 62 g/ha, Preemergence
  Corn plant response rating: 1
Corn (Zea mays); Rate 125 g/ha, Postemergence
  Plant response rating, Corn: 4
Corn (Zea mays); Rate 125 g/ha, Preemergence
  Corn plant response rating: 1
Corn (Zea mays); Rate 250 g/ha, Postemergence
  Plant response rating, Corn: 5
Corn (Zea mays); Rate 250 g/ha, Preemergence
  Plant response rating, Corn: 2
[2]; Rate 62 g/ha, Postemergence
  Plant response rating, Crabgrass: 9
[2]; Rate 62 g/ha, Preemergence
  Crabgrass plant response rating: 9
[2]; Rate 125 g/ha, Postemergence
  Plant response rating, Crabgrass: 9
[2]; Rate 125 g/ha, Preemergence
  Crabgrass plant response rating: 10
[2]; Rate 250 g/ha, Postemergence
  Plant response rating, Crabgrass: 9
[2]; Rate 250 g/ha, Preemergence
  Plant response rating, Crabgrass: 10
[3]; Rate 62 g/ha, Postemergence
  Plant response rating, Giant foxtail: 7
[3]; Rate 62 g/ha, Preemergence
  Giant foxtail plant response rating: 10
[3]; Rate 125 g/ha, Postemergence
  Plant response rating, Giant foxtail: 7
[3]; Rate 125 g/ha, Preemergence
  Giant foxtail plant response rating: 10
[3]; Rate 250 g/ha, Postemergence
  Plant response rating, Giant foxtail: 8
[3]; Rate 250 g/ha, Preemergence
  Plant response rating, Giant foxtail: 10
[4]; Rate 62 g/ha, Postemergence
  Plant response rating, Nutsedge: 0
[4]; Rate 62 g/ha, Preemergence
  Nutsedge plant response rating: 0
[4]; Rate 125 g/ha, Postemergence
  Plant response rating, Nutsedge: 2
[4]; Rate 125 g/ha, Preemergence
  Nutsedge plant response rating: 0
[4]; Rate 250 g/ha, Postemergence
  Plant response rating, Nutsedge: 2
[4]; Rate 250 g/ha, Preemergence
  Plant response rating, Nutsedge: 2
Rape (Brassica napus); Rate 62 g/ha, Postemergence
  Plant response rating, Rape: 9
Rape (Brassica napus); Rate 62 g/ha, Preemergence
  Rape plant response rating: 6
Rape (Brassica napus); Rate 125 g/ha, Postemergence
  Plant response rating, Rape: 9
Rape (Brassica napus); Rate 125 g/ha, Preemergence
  Rape plant response rating: 9
Rape (Brassica napus); Rate 250 g/ha, Postemergence
  Plant response rating, Rape: 9
Rape (Brassica napus); Rate 250 g/ha, Preemergence
  Plant response rating, Rape: 9
Soybean (Glycine max); Rate 62 g/ha, Postemergence
  Plant response rating, Soybean: 9
Soybean (Glycine max); Rate 62 g/ha, Preemergence
  Soybean plant response rating: 0
Soybean (Glycine max); Rate 125 g/ha, Postemergence
  Plant response rating, Soybean: 9
Soybean (Glycine max); Rate 125 g/ha, Preemergence
  Soybean plant response rating: 1
Soybean (Glycine max); Rate 250 g/ha, Postemergence
  Plant response rating, Soybean: 9
Soybean (Glycine max); Rate 250 g/ha, Preemergence
  Plant response rating, Soybean: 1
[5]; Rate 62 g/ha, Postemergence
  Plant response rating, Sugarbeets: 9
[5]; Rate 62 g/ha, Preemergence
  Sugarbeets plant response rating: 10
[5]; Rate 125 g/ha, Postemergence
  Plant response rating, Sugarbeets: 9
[5]; Rate 125 g/ha, Preemergence
  Sugarbeets plant response rating: 10
[5]; Rate 250 g/ha, Postemergence
  Plant response rating, Sugarbeets: 10
[5]; Rate 250 g/ha, Preemergence
  Plant response rating, Sugarbeets: 10
[6]; Rate 62 g/ha, Postemergence
  Plant response rating, Velvetleaf: 5
[6]; Rate 62 g/ha, Preemergence
  Velvetleaf plant response rating: 4
[6]; Rate 125 g/ha, Postemergence
  Plant response rating, Velvetleaf: 8
[6]; Rate 125 g/ha, Preemergence
  Velvetleaf plant response rating: 7
[6]; Rate 250 g/ha, Postemergence
  Plant response rating, Velvetleaf: 8
[6]; Rate 250 g/ha, Preemergence
  Plant response rating, Velvetleaf: 7
[7]; Rate 62 g/ha, Postemergence
  Plant response rating, Wheat: 4
[7]; Rate 62 g/ha, Preemergence
  Wheat plant response rating: 2
[7]; Rate 125 g/ha, Postemergence
  Plant response rating, Wheat: 4
[7]; Rate 125 g/ha, Preemergence
  Wheat plant response rating: 4
[7]; Rate 250 g/ha, Postemergence
  Plant response rating, Wheat: 6
[7]; Rate 250 g/ha, Preemergence
  Plant response rating, Wheat: 7
Wild oat (Avena fatua); Rate 62 g/ha, Postemergence
  Plant response rating, Wild oats: 6
Wild oat (Avena fatua); Rate 62 g/ha, Preemergence
  Wild oats plant response rating: 8
Wild oat (Avena fatua); Rate 125 g/ha, Postemergence
  Plant response rating, Wild oats: 7
Wild oat (Avena fatua); Rate 125 g/ha, Preemergence
  Wild oats plant response rating: 9
Wild oat (Avena fatua); Rate 250 g/ha, Postemergence
  Plant response rating, Wild oats: 9
Wild oat (Avena fatua); Rate 250 g/ha, Preemergence
  Plant response rating, Wild oats: 9
[8]; [11]
  Plant response rating, Barnyardgrass: 6
[8]; [12]
  Plant response rating, Barnyardgrass: 8
[8]; [13]
  Plant response rating, Barnyardgrass: 9
[9]; [11]
  Plant response rating, Ducksalad: 6
[9]; [12]
  Plant response rating, Ducksalad: 6
[9]; [13]
  Plant response rating, Ducksalad: 7
Rice (Oryza sativa); [11]
  Plant response rating, Rice: 6
Rice (Oryza sativa); [12]
  Plant response rating, Rice: 7
Rice (Oryza sativa); [13]
  Plant response rating, Rice: 7
[10]; [11]
  Plant response rating, S. Flatsedge: 7
[10]; [12]
  Plant response rating, S. Flatsedge: 8
[10]; [13]
  Plant response rating, S. Flatsedge: 9
